In publication PMC7397269, “Synthesis and Evaluation of New Coumarin Derivatives as Antioxidant, Antimicrobial, and Anti-Inflammatory Agents” (Molecules, 2020):
Values after ≈ are worked out from the molar mass of the structure shown.

Columns and labels:
[1] = system: Saccharomyces cerevisiae local isolate; assay: Agar well diffusion, S. cerevisiae; assay type: cell-based; details: well diffusion, 100 μL of 10 mg/mL in DMSO, S. cerevisiae, read-out: diameter of inhibition zone, SC
Text: (§1) The new molecules were individually tested for their antimicrobial activity in vitro against standard bacteria strains from the American Type Culture Collection (ATCC), namely, Staphylococcus aureus ATCC 29213, Bacillus subtilis ATCC 6633, Bacillus megaterium ATCC 9885 (Gram-positive), Escherichia coli ATCC 2592, and Pseudomonas aeruginosa ATCC 27,953 (Gram-negative). The compounds were also microbiologically tested against locally isolated Saccharomyces cerevisiae (yeast) and the standard Agricultural Research Service Culture Collection (NRRL) strain of the yeast-like pathogenic fungus Candida albicans NRRL Y-477. Primary screening was conducted using the agar well diffusion method using nutrient agar (NA) medium and Sabourand dextrose agar (SDA) medium for the tested pathological bacteria and yeast, respectively. […].
(§2) Antimicrobial tests were conducted via the agar well diffusion method using 100 μL of suspension containing 1 × 10^8 CFU/mL pathological tested bacteria and 1 × 10^6 CFU/mL yeast spread on NA and SDA, respectively. After the media cooled and solidified, wells (10 mm in diameter) were made in the solidified agar and loaded with 100 μL of the tested compound solution prepared by dissolving 10 mg of the chemical compound in 1 mL dimethyl sulfoxide (DMSO). The inoculated plates were then incubated for 24 h at 37 °C for bacteria and yeast growth. DMSO served as negative control. Ciprofloxacin (10 mg/mL) and ketoconazole (10 mg/mL) were used as standards for antibacterial and antifungal activity, respectively. After incubation, antimicrobial activity was evaluated by measuring the zone of inhibition against the test organisms and compared with that of the standard. Antimicrobial activities were expressed as the diameter of the inhibition zone (IZ) in mm. The experiment was carried out in triplicate and the average zone of inhibition was calculated.

[2] = system: Pseudomonas aeruginosa ATCC 27,953; assay: MIC, two-fold serial dilution, P. aeruginosa; assay type: cell-based; details: ATCC27, read-out: Minimum inhibitory concentration, PA
Text: as §1
(§3) The bacteriostatic activity of the active compounds (having IZ > 16 mm) was then evaluated using the two-fold serial dilution technique. Two-fold serial dilutions of the tested compounds solutions were prepared using the proper nutrient broth to reach final concentrations of 1000, 500, 250, and 125 μg/mL. The tubes were then inoculated with the test microorganisms grown in their suitable broth at 37 °C for 24 h (1 × 10^8 CFU/mL for bacteria and 1 × 10^6 CFU/mL of yeast), 0.1 mL of the above inoculum was administered per 5 mL, and the tubes were incubated at 37 °C for 24 h. The lowest concentration showing no growth was taken as the MIC.

[3] = system: Candida albicans NRRL Y-477; assay: MIC, two-fold serial dilution, C. albicans; assay type: cell-based; details: NRRLY477, read-out: Minimum inhibitory concentration, CA
Text: as §1, §3

[4] = system: Saccharomyces cerevisiae local isolate; assay: MIC, two-fold serial dilution, S. cerevisiae; assay type: cell-based; details: two-fold serial dilution, S. cerevisiae, read-out: Minimum inhibitory concentration, SC
Text: as §1, §3

[5] = DPPH antioxidant assay (radical scavenging); assay type: biochemical; details: mean ± SD (n = 3)
Experimental: The antioxidant effects of the synthesised compounds were assessed using the 2,2-diphenyl-1-picrylhydrazyl (DPPH) antioxidant assay. Table 1 summarises the antioxidant effects of the test samples and ascorbic acid except for compound 5b because it was produced in poor yield.
The radical scavenging activity of the synthesised compounds was measured using the DPPH microplate-based method. The absorbance was measured using a microplate/cuvette reader (Spectramax M5, Molecular Devices, San Jose, CA, USA). Reference standard ascorbic acid was utilised as the positive control for this assay. Test samples were prepared at a starting concentration of 200 μg/mL after mixing with 100 μL of 0.2 mM DPPH methanolic solution. […] Samples were incubated with DPPH in the dark for 30 min at room temperature (25 °C). The methanolic DPPH solution was prepared daily and stored in a flask covered with aluminium foil. DPPH radicals have an absorption maximum (λmax) at 515 nm, at which the absorbance values were measured and converted into a percentage of antioxidant activity.
The methanolic DPPH solution without antioxidants was used as a control, and samples in methanol alone served as a background control. IC50 was determined using GraphPad Prism 7 (GraphPad Software Inc., San Diego, CA, USA). The percent inhibition was calculated using the following Equation (1):(1) % Inhibition=100−Sample Absorbance −Sample background Absorbance/DPPH only Absorbance×100
The assay was carried out in triplicate and performed as much as possible in an area protected against light. The data points are presented as the mean ± standard deviation (SD, n = 3).

[6] = system: Escherichia coli ATCC 2592; assay: Agar well diffusion, E. coli; assay type: cell-based; details: ATCC2592, 100 μL of 10 mg/mL in DMSO, read-out: diameter of inhibition zone, EC
Text: as §1, §2

[7] = system: Bacillus subtilis ATCC 6633; assay: MIC, two-fold serial dilution, B. subtilis; assay type: cell-based; details: ATCC6633, read-out: Minimum inhibitory concentration, BS
Text: as §1, §3

[8] = system: Escherichia coli ATCC 2592; assay: MIC, two-fold serial dilution, E. coli; assay type: cell-based; details: ATCC2592, read-out: Minimum inhibitory concentration, EC
Text: as §1, §3

[9] = system: Bacillus megaterium ATCC 9885; assay: Agar well diffusion, B. megaterium; assay type: cell-based; details: Priestia megaterium, ATCC9885, 100 μL of 10 mg/mL in DMSO, read-out: diameter of inhibition zone, BM
Text: as §1, §2

[10] = system: Staphylococcus aureus ATCC 29213; assay: Agar well diffusion, S. aureus; assay type: cell-based; details: ATCC29213, 100 μL of 10 mg/mL in DMSO, read-out: diameter of inhibition zone, SA
Text: as §1, §2

[11] = system: Staphylococcus aureus ATCC 29213; assay: MIC, two-fold serial dilution, S. aureus; assay type: cell-based; details: ATCC29213, read-out: Minimum inhibitory concentration, SA
Text: as §1, §3

[12] = system: Bacillus megaterium ATCC 9885; assay: MIC, two-fold serial dilution, B. megaterium; assay type: cell-based; details: Priestia megaterium, ATCC9885, read-out: Minimum inhibitory concentration, BM
Text: as §1, §3

[13] = system: Candida albicans NRRL Y-477; assay: Agar well diffusion, C. albicans; assay type: cell-based; details: NRRLY477, 100 μL of 10 mg/mL in DMSO, read-out: diameter of inhibition zone, CA
Text: as §1, §2

[14] = system: Pseudomonas aeruginosa ATCC 27,953; assay: Agar well diffusion, P. aeruginosa; assay type: cell-based; details: ATCC27, 100 μL of 10 mg/mL in DMSO, read-out: diameter of inhibition zone, PA
Text: as §1, §2

[15] = system: Bacillus subtilis ATCC 6633; assay: Agar well diffusion, B. subtilis; assay type: cell-based; details: ATCC6633, 100 μL of 10 mg/mL in DMSO, read-out: diameter of inhibition zone, BS
Text: as §1, §2

[16] = system: trypsin; assay: Proteinase-inhibitory activity; assay type: biochemical; details: 250 µg/mL; mean ± SD (n = 3)
Experimental: The newly synthesised compounds were individually tested for their in vitro anti-inflammatory activity against proteinase enzyme. […] This test was performed at the Pharmacology Department, Medical Research Division, National Research Centre, Cairo, Egypt. Furthermore, compounds 2–8 were evaluated for their COX1/COX2 inhibitory activities.
The test was performed according to El-Serwy et al. with minor modifications. The reaction mixture (2 mL) contained 0.06 mg trypsin, 20 mM Tris HCl buffer (pH 7.4), and 1 mL test sample (250 µg/mL for each compound). After incubating for 5 min, 1 mL of 0.8% (w/v) casein was added. The mixture was incubated for an additional 20 min. The reaction was arrested by adding 1 mL of 10% perchloric acid. The cloudy suspension was centrifuged, and the absorbance of the supernatant was read at 280 nm. Reference standard aspirin was used as the positive control. The experiment was performed in triplicate. The percent inhibition of protein denaturation was calculated using the following Equation (2):(2) % Inhibition=100−A control −A test/A control×100 where Acontrol and Atest represent the absorbance of the control reaction without and with the sample, respectively.

[17] = system: tested microorganisms; assay: MIC, summary over the tested microorganisms; assay type: cell-based; details: two-fold serial dilution; read-out: MIC against one or more tested microorganisms
Text: as §1, §3

SMILES | melting point | MIC [2] | MIC [3] | MIC [4] | IC50 [5] | MIC [7] | MIC [8] | MIC [11] | MIC [12] | zone of inhibition at 10000 µg/mL [1] | zone of inhibition at 10000 µg/mL [6] | zone of inhibition at 10000 µg/mL [9] | zone of inhibition at 10000 µg/mL [10] | zone of inhibition at 10000 µg/mL [13] | zone of inhibition at 10000 µg/mL [14] | zone of inhibition at 10000 µg/mL [15] | % Inhibition (proteinase) [16] | MIC [17]
O=C(/C=C/c1ccc(Cl)cc1)c1ccc(NS(=O)(=O)c2c(O)c3cc(Cl)ccc3oc2=O)cc1 [9c, (E)-6-Chloro-N-(4-(3-(4-chlorophenyl)acryloyl)phenyl)-4-hydroxy-2-oxo-2H-chromene-3-sulfonamide] | 157 to 159 °C | 250 µg/mL (≈ 484 µM) | 125 µg/mL (≈ 242 µM) | 125 µg/mL (≈ 242 µM) | — ((—): inactive (IC50 > 200 μg/mL)) | 250 µg/mL (≈ 484 µM) | 250 µg/mL (≈ 484 µM) | 250 µg/mL (≈ 484 µM) | 250 µg/mL (≈ 484 µM) | 31 to 32 mm | 30 mm | 30 mm | 28 mm | 30 mm | 30 mm | 29 mm | 17.6 ± 6.86% | 125 µg/mL (≈ 242 µM)
Cc1ccc2oc(=O)c(S(=O)(=O)Nc3ccc(C(=O)/C=C/c4ccc(Cl)cc4)cc3)c(O)c2c1 [9d, (E)-N-(4-(3-(4-chlorophenyl)acryloyl)phenyl)-4-hydroxy-6-methyl-2-oxo-2H-chromene-3-sulfonamide] | 141 to 143 °C | 250 µg/mL (≈ 504 µM) | 125 µg/mL (≈ 252 µM) | 125 µg/mL (≈ 252 µM) | — ((—): inactive (IC50 > 200 μg/mL)) | 250 µg/mL (≈ 504 µM) | 250 µg/mL (≈ 504 µM) | 250 µg/mL (≈ 504 µM) | 250 µg/mL (≈ 504 µM) | 31 to 32 mm | 38 mm | 29 mm | 28 mm | 30 mm | 29 mm | 29 mm | 31.88 ± 3.82% | 125 µg/mL (≈ 252 µM)

The next lines start with results.

melting point | MIC [2] | MIC [3] | MIC [4] | IC50 [5] | MIC [7] | MIC [8] | MIC [11] | MIC [12] | SMILES | zone of inhibition at 10000 µg/mL [1] | zone of inhibition at 10000 µg/mL [6] | zone of inhibition at 10000 µg/mL [9] | zone of inhibition at 10000 µg/mL [10] | zone of inhibition at 10000 µg/mL [13] | zone of inhibition at 10000 µg/mL [14] | zone of inhibition at 10000 µg/mL [15] | % Inhibition (proteinase) [16] | MIC [17]
220 °C | 250 µg/mL (≈ 494 µM) | 500 µg/mL (≈ 987 µM) | 500 µg/mL (≈ 987 µM) | — ((—): inactive (IC50 > 200 μg/mL)) | 500 µg/mL (≈ 987 µM) | 250 µg/mL (≈ 494 µM) | 500 µg/mL (≈ 987 µM) | 500 µg/mL (≈ 987 µM) | Cc1ccc2oc(=O)c(S(=O)(=O)Nc3ccc(C(=O)/C=C/c4ccc([N+](=O)[O-])cc4)cc3)c(O)c2c1 [9b, (E)-4-Hydroxy-6-methyl-N-(4-(3-(4-nitrophenyl)acryloyl)phenyl)-2-oxo-2H-chromene-3-sulfonamide] | 25 mm | 26 mm | 25 mm | 22 mm | 23 mm | 26 mm | 24 mm |  | 
> 300 °C | 500 µg/mL (≈ 977 µM) | 500 µg/mL (≈ 977 µM) | 250 µg/mL (≈ 488 µM) | — ((—): inactive (IC50 > 200 μg/mL)) | 500 µg/mL (≈ 977 µM) | 500 µg/mL (≈ 977 µM) | 500 µg/mL (≈ 977 µM) | 500 µg/mL (≈ 977 µM) | COc1ccc(/C=C/C(=O)c2ccc(NS(=O)(=O)c3c(O)c4cc(Cl)ccc4oc3=O)cc2)cc1 [9e, (E)-6-Chloro-4-hydroxy-N-(4-(3-(4-methoxyphenyl)acryloyl)phenyl)-2-oxo-2H-chromene-3-sulfonamide] | 29 mm | 21 mm | 20 mm | 23 mm | 23 mm | 21 mm | 21 mm | 22.83 ± 4.88% | 
> 300 °C | 250 µg/mL (≈ 509 µM) | 500 µg/mL (≈ 1020 µM) | 500 µg/mL (≈ 1020 µM) | — ((—): inactive (IC50 > 200 μg/mL)) | 500 µg/mL (≈ 1020 µM) | 250 µg/mL (≈ 509 µM) | 500 µg/mL (≈ 1020 µM) | 250 µg/mL (≈ 509 µM) | COc1ccc(/C=C/C(=O)c2ccc(NS(=O)(=O)c3c(O)c4cc(C)ccc4oc3=O)cc2)cc1 [9f, (E)-4-Hydroxy-N-(4-(3-(4-methoxyphenyl)acryloyl)phenyl)-6-methyl-2-oxo-2H-chromene-3-sulfonamide] | 26 mm | 26 mm | 26 mm | 25 mm | 24 mm | 28 mm | 25 mm | 21.7 ± 7.6% | 
